Consider 23 compounds from patent publication US7781439B2, “Pyrazolopyrimidines” (Bayer CropScience AG, priority 2005, dated 2010).

Marks after values point to notes of the source that are not given here.

The first series can be described thus: log P determination. Format: physicochemical. The conditions noted are these: EEC Directive 79/831 Annex V. A8 by HPLC (gradient method, acetonitrile/0.1% aqueous phosphoric acid).
On to `CC(C)C(C)Nc1c(-c2c(Cl)cc(OC(F)(F)F)cc2Cl)c(Cl)nc2c(C(=O)NS(C)(=O)=O)cnn12` (racemic) [compound 1198], for which the log p was 4.85.

The same series, now with this note: intermediates of formula drawing 23, table.
In general, log P refers to the decadic logarithm of the partition coefficient of the neutral form, usually between octanol and water. With `COC(=O)c1cnn2c(NC(C)C(C)C)c(-c3c(F)cc(F)cc3F)c(Cl)nc12` (centres unmarked), the lipophilicity (log P) turned out to be 4.05.

As for `COC(=O)c1cnn2c(NC(C)C(C)(C)C)c(-c3c(F)cc(F)cc3F)c(Cl)nc12` (centres unmarked), the “log P” value turned out to be 4.93.

For `COC(=O)c1cnn2c(N3CCC(C)CC3)c(-c3c(F)cccc3Cl)c(Cl)nc12` [(CH2—CH2—CHCH3—CH2—CH2), 2-Cl-6-F-phenyl], the log partition coefficient (log P) is 4.61.

With `COC(=O)c1cnn2c(NC(C)C(F)(F)F)c(-c3c(F)cc(F)cc3F)c(Cl)nc12` (centres unmarked) [CH(CH3)(CF3), H, 2,4,6-trifluorophenyl], the “log P” value turned out to be 3.53.

As to `COC(=O)c1cnn2c(NC(C)C(F)(F)F)c(-c3ccc(F)cc3Cl)c(Cl)nc12` (centres unmarked) [CH(CH3)(CF3), H, 2-Cl-4-F-phenyl], the “log P” value was 3.75.

For `COC(=O)c1cnn2c(NC(C)C(C)(C)C)c(-c3ccc(F)cc3Cl)c(Cl)nc12` (centres unmarked) [CH(CH3)—C(CH3)3, H, 2-Cl-4-F-phenyl], the “log P” value worked out at 4.68.

Consider `COC(=O)c1cnn2c(NC(C)C(C)(C)C)c(-c3c(F)cccc3Cl)c(Cl)nc12` (centres unmarked) [CH(CH3)—C(CH3)3, H, 2-Cl-6-F-phenyl], for which the lipophilicity (log P) was determined as 4.51.

Consider `COC(=O)c1cnn2c(NC(C)C(C)(C)C)c(-c3ccccc3Cl)c(Cl)nc12` (centres unmarked) [CH(CH3)—C(CH3)3, H, 2-Cl-phenyl], for which the “log P” value was determined as 4.61.

With `COC(=O)c1cnn2c(NC(C)C(C)(C)C)c(-c3ncncc3F)c(Cl)nc12` (centres unmarked) [CH(CH3)—C(CH3)3, H, 5-F-pyrimidin-4-yl], the “log P” value came to 3.15.

In the case of `COC(=O)c1cnn2c(NC(C)C(C)C)c(-c3ccc(F)cc3Cl)c(Cl)nc12` (centres unmarked) [CH(CH3)—CH(CH3)2, H, 2-Cl-4-F-phenyl], the log partition coefficient (log P) is recorded as 4.31.

Turning to `COC(=O)c1cnn2c(NC(C)C(C)C)c(-c3c(F)cccc3Cl)c(Cl)nc12` (centres unmarked) [CH(CH3)—CH(CH3)2, H, 2-Cl-6-F-phenyl], the “log P” value is 4.12.

Consider `COC(=O)c1cnn2c(NC(C)C(C)C)c(-c3ccccc3Cl)c(Cl)nc12` (centres unmarked) [CH(CH3)—CH(CH3)2, H, 2-Cl-phenyl], for which the lipophilicity (log P) was 4.21.

The series is the same for the next values; noted with them: starting materials and intermediates, log P / log P*; read-out: log P.
With `CC(C)Nc1c(-c2ccc(Cl)cc2Cl)c(Cl)nc2c(C(=O)O)cnn12` [5-Chloro-6-(2,4-dichlorophenyl)-7-isopropylaminopyrazolo[1,5-a]pyrimidine-3-carboxylic acid], the log p was 3.3.

The same series, now with this note: values marked *; no footnote carries the single asterisk; general footnote: HPLC gradient method, acetonitrile/0.1% aqueous phosphoric acid.
Turning to `C[C@@H](Nc1c(-c2c(F)cccc2Cl)c(Cl)nc2c(C(=O)NS(C)(=O)=O)cnn12)C(C)(C)C` [Example 3], the log p was 4.19*.

With `C[C@@H](Nc1c(-c2ccccc2Cl)c(Cl)nc2c(C(=O)NS(C)(=O)=O)cnn12)C(C)(C)C` [Example 21], the log p is 4.36*.

In the case of `C[C@@H](Nc1c(-c2ccc(Cl)cc2Cl)c(Cl)nc2c(C(=O)NS(C)(=O)=O)cnn12)C(C)(C)C` [Example 39], the log p was 4.89*.

For the compound `C[C@@H](Nc1c(-c2c(F)cc(Cl)cc2F)c(Cl)nc2c(C(=O)NS(C)(=O)=O)cnn12)C(C)(C)C` [Example 45], the log p is 4.55*.

Staying with this series, now noted: values printed without asterisk; EEC Directive 79/831 Annex V. A8, HPLC gradient method, acetonitrile/0.1% aqueous phosphoric acid (general footnote).
Regarding `C[C@@H](Nc1c(-c2c(F)cc(F)cc2F)c(Cl)nc2c(C(=O)NS(C)(=O)=O)cnn12)C(C)(C)C` [Example 9], the log p was found to be 4.16.

As for `C[C@@H](Nc1c(-c2ccc(F)cc2Cl)c(Cl)nc2c(C(=O)NS(=O)(=O)C(F)(F)F)cnn12)C(C)(C)C` [Example 14], the log p was 3.77.

`C[C@@H](Nc1c(-c2ccc(F)cc2Cl)c(Cl)nc2c(C(=O)NS(C)(=O)=O)cnn12)C(C)(C)C` [Example 15] came in with a log p of 4.44.

The compound `C[C@@H](Nc1c(-c2c(F)cc(F)cc2Cl)c(Cl)nc2c(C(=O)NS(C)(=O)=O)cnn12)C(C)(C)C` [Example 33] came in with a log p of 4.38.

`C[C@@H](Nc1c(-c2ccc(Cl)cc2Cl)c(Cl)nc2c(C(=O)NS(=O)(=O)C(F)(F)F)cnn12)C(C)(C)C` [Example 38] returned a log p of 3.93.
